Data as given in publication PMC6635429, “A 4-cyano-3-methylisoquinoline inhibitor of Plasmodium falciparum growth targets the sodium efflux pump PfATP4” (Scientific Reports, 2019).

What was measured:
Type in all cases: biochemical
PfATP4 [1] = biological target: T1, PfATP4 (Plasmodium falciparum, UniProt A0A143ZZK9); test: cipargamin-sensitive Na+-dependent ATPase activity (Pi release) in parasite membranes
T1 construct: gene ATP4; native PfATP4 in P. falciparum membrane preparations (3D7)

PfATP4 [2] = biological target: T1, PfATP4; test: cipargamin-sensitive Na+-dependent ATPase activity (Pi release) in parasite membranes; resistance mutation S374R
PfATP4 [3] = biological target: T2, PfATP4 (Plasmodium falciparum, UniProt A0A143ZZK9, S374R); test: cipargamin-sensitive Na+-dependent ATPase activity (Pi release) in membranes of resistant parasites
T2 construct: gene ATP4; PfATP4 S374R in membranes from B7 parasites
T2 sequence (A0A143ZZK9 1-1264 S374R): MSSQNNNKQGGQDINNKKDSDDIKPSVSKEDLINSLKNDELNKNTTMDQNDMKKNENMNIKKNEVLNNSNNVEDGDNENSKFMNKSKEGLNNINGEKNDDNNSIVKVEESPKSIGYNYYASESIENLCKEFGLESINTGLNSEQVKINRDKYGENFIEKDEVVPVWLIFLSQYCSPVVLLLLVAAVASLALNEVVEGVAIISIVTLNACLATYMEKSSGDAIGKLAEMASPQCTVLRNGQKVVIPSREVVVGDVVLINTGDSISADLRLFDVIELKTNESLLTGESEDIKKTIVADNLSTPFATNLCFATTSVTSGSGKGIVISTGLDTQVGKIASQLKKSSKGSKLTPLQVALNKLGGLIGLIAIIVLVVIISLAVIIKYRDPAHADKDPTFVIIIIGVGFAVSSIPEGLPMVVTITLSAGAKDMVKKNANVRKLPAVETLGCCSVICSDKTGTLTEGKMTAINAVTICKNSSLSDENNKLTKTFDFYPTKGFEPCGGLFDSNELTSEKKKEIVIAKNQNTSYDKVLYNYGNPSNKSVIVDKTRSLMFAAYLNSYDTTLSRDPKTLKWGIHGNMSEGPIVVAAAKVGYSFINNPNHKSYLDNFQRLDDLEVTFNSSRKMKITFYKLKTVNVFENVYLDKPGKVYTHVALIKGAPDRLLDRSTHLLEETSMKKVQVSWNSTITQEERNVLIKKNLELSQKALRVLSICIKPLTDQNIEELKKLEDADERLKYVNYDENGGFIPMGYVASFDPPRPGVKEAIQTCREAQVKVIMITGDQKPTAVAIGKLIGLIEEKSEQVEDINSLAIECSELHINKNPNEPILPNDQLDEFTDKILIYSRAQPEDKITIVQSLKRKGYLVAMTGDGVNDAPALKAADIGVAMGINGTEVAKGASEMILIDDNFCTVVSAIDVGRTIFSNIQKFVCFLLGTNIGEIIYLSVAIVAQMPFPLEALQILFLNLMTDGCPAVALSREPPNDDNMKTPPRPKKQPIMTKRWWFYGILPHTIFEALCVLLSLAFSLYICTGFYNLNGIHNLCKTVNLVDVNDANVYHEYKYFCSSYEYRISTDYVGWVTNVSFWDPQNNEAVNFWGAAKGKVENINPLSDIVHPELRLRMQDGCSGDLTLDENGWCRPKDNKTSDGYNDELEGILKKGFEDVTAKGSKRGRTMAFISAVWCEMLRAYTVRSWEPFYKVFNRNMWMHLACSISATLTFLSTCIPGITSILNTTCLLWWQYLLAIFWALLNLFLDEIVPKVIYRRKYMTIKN

Structure (SMILES)	IC50 (PfATP4 [1]) [nM]	IC50 (PfATP4 [2]) [nM]	IC50 (PfATP4 [3]) [nM]
Cc1nc(N[C@@H](C)c2ccccc2)c2ccccc2c1C#N [MB10]	62 ± 9	–	–
CCC(CC)Nc1nc(C)c(C#N)c2ccccc12 [MB14, 3-methyl-1-(1-ethylpropylamino)isoquinoline-4-carbonitrile]	–	52 ± 16	429 ± 73
